# Measurements as given in article PMC12080312 (2025).
# Tests used:
# [1] = tested on: N1MA1a (DNA, aptamer) GACGACACATAATTGTTGATCCACTGTTTATTAGGTGTCGTC; assay: ITC; settings: 500 mM Na+, 20 mM Mg2+; 50 mM Tris, pH 7.6, 25 °C; abstract prints 0.75 ± 0.04
# [2] = tested on: N1MA2a (DNA, aptamer) GACGACAAGGTTGCTGGTCTGGTACAGAGATAGTTCGTCGTC; assay: ITC; settings: 500 mM Na+, 20 mM Mg2+; 50 mM Tris, pH 7.6, 25 °C
# [3] = tested on: AdeApt (classical adenosine aptamer) (DNA, aptamer) ACCTGGGGGAGTATTGCGGAGGAAGGT; assay: ThT fluorescence displacement; settings: 500 mM Na+, 20 mM Mg2+; Kd could not be fitted; 50 mM Tris, pH 7.6; ThT tracer
smiles,measurement,setting,value
Cn1cnc2c(ncn2[C@@H]2O[C@H](CO)[C@@H](O)[C@H]2O)c1=N,Kd,[1],0.75 ± 0.07 µM
same,Kd,[2],7.3 ± 7.5 µM
same,binding,[3],weak
